Consider three molecules from patent publication US20060233870A1, “Compositions and methods for drug delivery” (Noven Pharmaceuticals, Inc., priority 1999, published 2006).

Series [1] in a line: solubility of the drug in the acrylic-based polymer dermal composition.

For the molecule `Clc1cccc(Cl)c1N=C1NCCN1` [clonidine], the clonidine flux entry (increasing amount of hydroxy functional acrylic (DT 87-2287) versus carboxy functional DT 87-2852, FIG. 3, Examples 9-11 and Comparative Example 3 plotted) was “increases the flux of the clonidine”. Besides, in series [1] (in hydroxy functional acrylic compared with carboxy functional acrylic), the “solubility of clonidine in the acrylic” value is “lower solubility”. On to `O=C(CCCN1CCC(O)(c2ccc(Cl)cc2)CC1)c1ccc(F)cc1` [haloperidol], for which the cumulative haloperidol flux entry (increasing amount of non-functional acrylic (HRJ 4483) versus carboxy functional DT 87-2196, FIG. 1, Examples 2 and 4 and Comparative Example 1 plotted) was “flux of the haloperidol across the skin increases”. The “solubility of the haloperidol in the dermal composition” value in series [1] (increasing amount of non-functional acrylic in the dermal composition) is given as “reduces the solubility of the haloperidol”. Take `CN1CCCC1c1cccnc1` (centres unmarked) [nicotine]: the nicotine flux result (increasing amount of non-functional acrylic (HRJ 4483) versus carboxy functional DT 87-2852, FIG. 2, Examples 5-7 and Comparative Example 2 plotted) is “increasing flux”.
